# Test results published in paper PMC4529466, “Intradermal insulin infusion achieves faster insulin action than subcutaneous infusion for 3-day wear” (Drug Delivery and Translational Research, 2015).
# Tested on: blood glucose
# Test: Postprandial blood glucose pharmacodynamics after meal bolus, 3-day ID vs SC infusion
# Format: in vivo, human (T1DM patients)
# Settings: ID; for BGavg0–1 / BGmax0–1 / ΔAUC-BG0–1 / ΔBGmax0–1 / BGavg0–1.5 / BGmax0–1.5 / ΔAUC-BG0–1.5 / ΔBGmax0–1.5 / BGavg0–2 / BGmax0–2 / ΔAUC-BG0–2 / ΔBGmax0–2 / BGavg0–4 / BGmax0–4 / ΔAUC-BG0–4 / ΔBGmax0–4 / BG1 / ΔBG1 / BG1.5 / ΔBG1.5 / BG2 / ΔBG2 / BG4 / ΔBG4: mean ± SD; for BG1 / ΔBG1: at 1 h; for BG1.5 / ΔBG1.5: at 1.5 h; for BG2 / ΔBG2: at 2 h; for BG4 / ΔBG4: at 4 h
# Text: This was a single center, open-label, two-period crossover study, randomized by infusion order, in T1DM patients on continuous subcutaneous insulin infusion (CSII). The protocol was approved by an independent ethics committee (Ethikkommission der Ärztekammer Nordrhein, Düsseldorf, Germany), appropriate regulatory bodies (German Federal Institute for Drugs and Medical Devices (BfArM)), and conducted in compliance with good clinical practice (GCP), the Declaration of Helsinki, and applicable regulatory requirements.
# The study was completed over a multi-week period consisting of three study visits: a screening visit (V1) and two interventional visits (V2 and V3). After establishing eligibility and enrollment, patients received treatment during two interventional visits: one SC and one ID basal/bolus infusion of insulin aspart (NovoRapid® U-100, Novo Nordisk, Copenhagen, Denmark) administered over 3 days in a randomized order.
# Individual meal bolus doses were determined based on patient self-reported insulin to carbohydrate ratios and insulin sensitivity, historical self-reported insulin usage for meal coverage, and clinician review and adjustment of insulin usage during the in-clinic BG stabilization period the evening prior to the first morning meal. Basal insulin infusion rates were initiated based on the patient’s known daily delivery profile and could be adjusted by the clinician to maintain levels within 70–160 mg/dL according to a predetermined sliding scale and hourly changes in glycemia. A continuous glucose monitor (Seven Plus®, DexCom Inc., San Diego, CA) calibrated per manufacturer’s recommendations was applied to continuously monitor glycemia as a safety measure, in addition to periodic blood sampling for BG determination.
# After maintaining targeted blood glucose range during the preceding night, bolus insulin doses were administered via the respective infusion catheter prior to standardized breakfast and lunch test meals on each of the three treatment days. Each meal insulin bolus was calculated based on the patient’s insulin sensitivity and previous hours change in BG per sliding scale then delivered immediately prior to breakfast (t = 0 min) and lunch (t = 360 min) consumption. Breakfast was a high glycemic index (60 g carbohydrates) solid meal, and lunch was a mixed meal based on the individual’s calculated daily energy intake and equivalent in caloric composition by day. Breakfast and lunch meals were consumed within 15 min followed by serial blood sampling with BG monitoring for a period of 6 and 4 h, respectively. Patients were asked to remain sedentary for 2 h after meals. Identical study procedures were utilized for the remaining dosing visit days (Fig. 2).
# To assess insulin absorption kinetics and glycemic response, blood samples for measurements of insulin aspart and blood glucose in serum were drawn at predefined time points throughout dosing visits. Serial samples for safety BG determination, but not PK analysis, were obtained at a minimum every 2 h. Meal PK/PD analysis samples were acquired immediately pre-bolus and for 4–6 h post-bolus for breakfast and lunch meals, with a higher frequency during the first 2 h to capture insulin and BG peak levels {Post-bolus breakfast time points (min): 0, 10, 15, 20, 25, 30, 35, 40, 45, 50, 55, 60, 65, 70, 80, 90, 120, 150, 180, 210, 240, 300, 330, 360; Post-bolus lunch time points (min): 0, 10, 20, 30, 40, 50, 60, 70, 80, 90, 120, 180, 240, 300}. Sampling times were based on previous clinical study experience for bolus microneedle insulin delivery and had increased sampling frequency in the first 90 min post-delivery to capture the rapid insulin peaks from microneedle ID delivery. Blood samples for evening meal and basal period PK assessment could not be obtained due to daily blood draw volume limits for patient safety. Serum insulin aspart was measured by a third party laboratory (IKFE GmbH, Mainz, Germany) using a validated insulin assay (Invitron ELISA kit). […]
# [1] = 0–1 h, Days 1–3 combined, all test meals, n = 150–156
# [2] = 0–1 h, across all study days and meals
# [3] = 0–1.5 h, Days 1–3 combined, all test meals, n = 150–156
# [4] = 0–1.5 h, across all study days and meals
# [5] = 0–2 h, Days 1–3 combined, all test meals, n = 150–156
# [6] = 0–2 h, across all study days and meals
# [7] = 0–4 h, Days 1–3 combined, all test meals, n = 150–156
# [8] = Days 1–3 combined, all test meals, n = 150–156
substance,measurement,setting,value
insulin aspart,BGavg0–1,"0–1 h, Day 1, across meals",135 ± 45.9 mg/dL
same,BGmax0–1,"0–1 h, Day 1, across meals",159 ± 53.1 mg/dL
same,ΔAUC-BG0–1,"0–1 h, Day 1, across meals",17.2 ± 22.3 mg·h/dL
same,ΔBGmax0–1,"0–1 h, Day 1, across meals",41.3 ± 32.1 mg/dL
same,BGavg0–1,"0–1 h, Day 2, across meals",138 ± 37.4 mg/dL
same,BGmax0–1,"0–1 h, Day 2, across meals",162 ± 43.0 mg/dL
same,ΔAUC-BG0–1,"0–1 h, Day 2, across meals",18.7 ± 22.0 mg·h/dL
same,ΔBGmax0–1,"0–1 h, Day 2, across meals",43.1 ± 30.2 mg/dL
same,BGavg0–1,"0–1 h, Day 3, across meals",136 ± 37.3 mg/dL
same,BGmax0–1,"0–1 h, Day 3, across meals",162 ± 41.5 mg/dL
same,ΔAUC-BG0–1,"0–1 h, Day 3, across meals",18.5 ± 19.2 mg·h/dL
same,ΔBGmax0–1,"0–1 h, Day 3, across meals",44.2 ± 28.1 mg/dL
same,BGavg0–1,[1],136 ± 40.5 mg/dL
same,BGmax0–1,[1],161 ± 46.2 mg/dL
same,ΔAUC-BG0–1,[1],18.1 ± 21.2 mg·h/dL
same,ΔBGmax0–1,[1],42.8 ± 30.1 mg/dL
same,Intra-subject variability of BGavg,[2],26.3 %CV
same,Intra-subject variability of BGmax,[2],25.2 %CV
same,BGavg0–1.5,"0–1.5 h, Day 1, across meals",137 ± 42.1 mg/dL
same,BGmax0–1.5,"0–1.5 h, Day 1, across meals",160 ± 46.8 mg/dL
same,ΔAUC-BG0–1.5,"0–1.5 h, Day 1, across meals",32.4 ± 41.7 mg·h/dL
same,ΔBGmax0–1.5,"0–1.5 h, Day 1, across meals",45.0 ± 34.5 mg/dL
same,BGavg0–1.5,"0–1.5 h, Day 2, across meals",144 ± 39.9 mg/dL
same,BGmax0–1.5,"0–1.5 h, Day 2, across meals",169 ± 45.6 mg/dL
same,ΔAUC-BG0–1.5,"0–1.5 h, Day 2, across meals",36.8 ± 40.8 mg·h/dL
same,ΔBGmax0–1.5,"0–1.5 h, Day 2, across meals",49.5 ± 33.5 mg/dL
same,BGavg0–1.5,"0–1.5 h, Day 3, across meals",143 ± 40.2 mg/dL
same,BGmax0–1.5,"0–1.5 h, Day 3, across meals",172 ± 45.0 mg/dL
same,ΔAUC-BG0–1.5,"0–1.5 h, Day 3, across meals",39.3 ± 36.8 mg·h/dL
same,ΔBGmax0–1.5,"0–1.5 h, Day 3, across meals",54.8 ± 34.2 mg/dL
same,BGavg0–1.5,[3],141 ± 40.6 mg/dL
same,BGmax0–1.5,[3],167 ± 45.8 mg/dL
same,ΔAUC-BG0–1.5,[3],36.0 ± 39.8 mg·h/dL
same,ΔBGmax0–1.5,[3],49.5 ± 34.1 mg/dL
same,Intra-subject variability of BGavg,[4],25.6 %CV
same,Intra-subject variability of BGmax,[4],24.5 %CV
same,BGavg0–2,"0–2 h, Day 1, across meals",139 ± 43.8 mg/dL
same,BGmax0–2,"0–2 h, Day 1, across meals",165 ± 47.8 mg/dL
same,ΔAUC-BG0–2,"0–2 h, Day 1, across meals",47.8 ± 63.1 mg·h/dL
same,ΔBGmax0–2,"0–2 h, Day 1, across meals",49.4 ± 36.7 mg/dL
same,BGavg0–2,"0–2 h, Day 2, across meals",146 ± 41.9 mg/dL
same,BGmax0–2,"0–2 h, Day 2, across meals",171 ± 46.5 mg/dL
same,ΔAUC-BG0–2,"0–2 h, Day 2, across meals",53.9 ± 61.9 mg·h/dL
same,ΔBGmax0–2,"0–2 h, Day 2, across meals",52.2 ± 33.7 mg/dL
same,BGavg0–2,"0–2 h, Day 3, across meals",148 ± 41.8 mg/dL
same,BGmax0–2,"0–2 h, Day 3, across meals",176 ± 44.9 mg/dL
same,ΔAUC-BG0–2,"0–2 h, Day 3, across meals",62.8 ± 56.3 mg·h/dL
same,ΔBGmax0–2,"0–2 h, Day 3, across meals",59.5 ± 34.9 mg/dL
same,BGavg0–2,[5],144 ± 42.4 mg/dL
same,BGmax0–2,[5],170 ± 46.4 mg/dL
same,ΔAUC-BG0–2,[5],54.5 ± 60.6 mg·h/dL
same,ΔBGmax0–2,[5],53.5 ± 35.2 mg/dL
same,Intra-subject variability of BGavg,[6],25.9 %CV
same,Intra-subject variability of BGmax,[6],23.8 %CV
same,BGavg0–4,"0–4 h, Day 1, across meals",141 ± 44.0 mg/dL
same,BGmax0–4,"0–4 h, Day 1, across meals",178 ± 49.1 mg/dL
same,ΔAUC-BG0–4,"0–4 h, Day 1, across meals",105 ± 148 mg·h/dL
same,ΔBGmax0–4,"0–4 h, Day 1, across meals",64.0 ± 43.6 mg/dL
same,BGavg0–4,"0–4 h, Day 2, across meals",148 ± 41.3 mg/dL
same,BGmax0–4,"0–4 h, Day 2, across meals",186 ± 43.2 mg/dL
same,ΔAUC-BG0–4,"0–4 h, Day 2, across meals",120 ± 140 mg·h/dL
same,ΔBGmax0–4,"0–4 h, Day 2, across meals",69.4 ± 36.8 mg/dL
same,BGavg0–4,"0–4 h, Day 3, across meals",156 ± 45.0 mg/dL
same,BGmax0–4,"0–4 h, Day 3, across meals",188 ± 49.8 mg/dL
same,ΔAUC-BG0–4,"0–4 h, Day 3, across meals",156 ± 140 mg·h/dL
same,ΔBGmax0–4,"0–4 h, Day 3, across meals",70.4 ± 42.2 mg/dL
same,BGavg0–4,[7],148 ± 43.6 mg/dL
same,BGmax0–4,[7],184 ± 47.4 mg/dL
same,ΔAUC-BG0–4,[7],126 ± 144 mg·h/dL
same,ΔBGmax0–4,[7],67.8 ± 40.8 mg/dL
same,Intra-subject variability of BGmax,"0–4 h, across all study days and meals",21.1 %CV
same,BG1,"Day 1, across meals",151 ± 56.0 mg/dL
same,ΔBG1,"Day 1, across meals",33.3 ± 38.2 mg/dL
same,BG1,"Day 2, across meals",155 ± 45.8 mg/dL
same,ΔBG1,"Day 2, across meals",35.8 ± 35.4 mg/dL
same,BG1,"Day 3, across meals",156 ± 45.2 mg/dL
same,ΔBG1,"Day 3, across meals",38.2 ± 32.9 mg/dL
same,BG1,[8],154 ± 49.3 mg/dL
same,ΔBG1,[8],35.6 ± 35.5 mg/dL
same,BG1.5,"Day 1, across meals",146 ± 52.2 mg/dL
same,ΔBG1.5,"Day 1, across meals",31.0 ± 44.4 mg/dL
same,BG1.5,"Day 2, across meals",155 ± 51.4 mg/dL
same,ΔBG1.5,"Day 2, across meals",35.8 ± 44.4 mg/dL
same,BG1.5,"Day 3, across meals",163 ± 51.3 mg/dL
same,ΔBG1.5,"Day 3, across meals",45.7 ± 41.2 mg/dL
same,BG1.5,[8],154 ± 51.8 mg/dL
same,ΔBG1.5,[8],37.2 ± 43.6 mg/dL
same,BG2,"Day 1, across meals",145 ± 54.5 mg/dL
same,ΔBG2,"Day 1, across meals",30.2 ± 48.5 mg/dL
same,BG2,"Day 2, across meals",152 ± 51.9 mg/dL
same,ΔBG2,"Day 2, across meals",33.1 ± 46.1 mg/dL
same,BG2,"Day 3, across meals",165 ± 50.5 mg/dL
same,ΔBG2,"Day 3, across meals",48.0 ± 43.3 mg/dL
same,BG2,[8],154 ± 52.7 mg/dL
same,ΔBG2,[8],36.7 ± 46.5 mg/dL
same,BG4,"Day 1, across meals",145 ± 52.1 mg/dL
same,ΔBG4,"Day 1, across meals",29.3 ± 54.1 mg/dL
same,BG4,"Day 2, across meals",147 ± 55.5 mg/dL
same,ΔBG4,"Day 2, across meals",28.0 ± 55.7 mg/dL
same,BG4,"Day 3, across meals",160 ± 60.1 mg/dL
same,ΔBG4,"Day 3, across meals",43.6 ± 54.8 mg/dL
same,BG4,[8],150 ± 55.9 mg/dL
same,ΔBG4,[8],33.3 ± 54.9 mg/dL
same,BG at 1 h,p = 0.0121 vs SC,154
same,Intra-subject variability of BG,"time 1 h, across all study days and meals",29.1 %CV
same,Intra-subject variability of BG,"time 1.5 h, across all study days and meals",31.5 %CV
same,Intra-subject variability of ΔBG,"time 2 h, across all study days and meals",90.2 %CV
